Consider 21 compounds from ChEMBL document CHEMBL5113477, “Membrane acting Povarov-Doebner derived compounds potently disperse preformed multidrug resistant Gram-positive bacterial biofilms” (Eur J Med Chem, 2022).

Common to all, as to format: functional
Test [1] concerns Staphylococcus aureus. Kind of test: Antibacterial activity against Staphylococcus aureus ATCC 25923 assessed as reduction in visible bacterial growth incubated for 18 to 20 hrs by CLSI based broth microdilution analysis. As to conditions: time 18-20 hrs. For orientation: In broth dilution the organism is exposed to a series of concentrations in liquid medium.
Test [2] concerns Staphylococcus aureus. The test can be described thus: Antibiofilm activity against methicillin-resistant Staphylococcus aureus USA 300 in TSB broth assessed as dispersal of glucose-induced biofilm preincubated with glucose for 48 hrs followed by compound addition and measured after 24 hrs by crystal violet staining based analysis.
Test [3] concerns Enterococcus faecalis. Kind of test: Antibiofilm activity against vancomycin-resistant Enterococcus faecalis ATCC 51575 in TSB broth assessed as dispersal of glucose-induced biofilm preincubated with glucose for 48 hrs followed by compound addition and measured after 24 hrs by crystal violet staining based analysis.
The subject of test [4] is Enterococcus faecium. Kind of test: Antibiofilm activity against vancomycin-resistant Enterococcus faecium ATCC 700221 in TSB broth assessed as dispersal of glucose-induced biofilm preincubated with glucose for 48 hrs followed by compound addition and measured after 24 hrs by crystal violet staining based analysis.
Test [5] deals with Staphylococcus aureus. Kind of test: Antibacterial activity against methicillin-resistant Staphylococcus aureus USA 300 (ARLG 1644) assessed as reduction in visible bacterial growth incubated for 18 to 20 hrs by CLSI based broth microdilution analysis. As to conditions: time 18-20 hrs.
In test [6] the test system is Enterococcus faecalis. The test can be described thus: Antibacterial activity against Enterococcus faecalis ATCC 29212 assessed as reduction in visible bacterial growth incubated for 18 to 20 hrs by CLSI based broth microdilution analysis. As to conditions: time 18-20 hrs.
For test [7], the system named is Staphylococcus aureus. Kind of test: Antibacterial activity against methicillin-resistant Staphylococcus aureus USA 300 (ARLG 1665) assessed as reduction in visible bacterial growth incubated for 18 to 20 hrs by CLSI based broth microdilution analysis. As to conditions: time 18-20 hrs.
The next test has as its system Listeria monocytogenes. The test can be described thus: Antibacterial activity against Listeria monocytogenes ATCC 19115 assessed as reduction in visible bacterial growth incubated for 18 to 20 hrs by CLSI based broth microdilution analysis. Particulars: time 18-20 hrs.
Test [8] has as its system Staphylococcus aureus. The test can be described thus: Antibacterial activity against methicillin-resistant Staphylococcus aureus USA 300 (ARLG 1561) assessed as reduction in visible bacterial growth incubated for 18 to 20 hrs by CLSI based broth microdilution analysis. As to conditions: time 18-20 hrs.
Test [9] relates to Staphylococcus aureus. The test can be described thus: Antibacterial activity against methicillin-resistant Staphylococcus aureus USA 300 (ARLG 1569) assessed as reduction in visible bacterial growth incubated for 18 to 20 hrs by CLSI based broth microdilution analysis. As to conditions: time 18-20 hrs.
Test [10] concerns Staphylococcus aureus. The test can be described thus: Antibacterial activity against methicillin-resistant Staphylococcus aureus USA 300 (ARLG 1570) assessed as reduction in visible bacterial growth incubated for 18 to 20 hrs by CLSI based broth microdilution analysis. As to conditions: time 18-20 hrs.
The test system of test [11] is Staphylococcus aureus. The test can be described thus: Antibacterial activity against methicillin-resistant Staphylococcus aureus USA 300 (ARLG 1568) assessed as reduction in visible bacterial growth incubated for 18 to 20 hrs by CLSI based broth microdilution analysis. Particulars: time 18-20 hrs.
In test [12] the test system is Staphylococcus aureus. The test can be described thus: Antibacterial activity against methicillin-resistant Staphylococcus aureus USA 300 (ARLG 1663) assessed as reduction in visible bacterial growth incubated for 18 to 20 hrs by CLSI based broth microdilution analysis. As to conditions: time 18-20 hrs.
The test system of test [13] is Staphylococcus aureus. Kind of test: Antibacterial activity against methicillin-resistant Staphylococcus aureus USA 300 assessed as reduction in visible bacterial growth incubated for 18 to 20 hrs by CLSI based broth microdilution analysis. Particulars: time 18-20 hrs.
Test [14] concerns Staphylococcus aureus. Kind of test: Antibacterial activity against methicillin-resistant Staphylococcus aureus USA 300 (ARLG 1567) assessed as reduction in visible bacterial growth incubated for 18 to 20 hrs by CLSI based broth microdilution analysis. Particulars: time 18-20 hrs.
The test system of test [15] is Staphylococcus aureus. The test can be described thus: Antibacterial activity against methicillin-resistant Staphylococcus aureus USA 300 (ARLG 1649) assessed as reduction in visible bacterial growth incubated for 18 to 20 hrs by CLSI based broth microdilution analysis. Particulars: time 18-20 hrs.
Test [16] concerns Staphylococcus aureus. Kind of test: Antibacterial activity against methicillin-resistant Staphylococcus aureus ATCC 33592 assessed as reduction in visible bacterial growth incubated for 18 to 20 hrs by CLSI based broth microdilution analysis. As to conditions: time 18-20 hrs.
In test [17] the test system is Enterococcus faecalis. The test can be described thus: Antibacterial activity against vancomycin-resistant Enterococcus faecalis ATCC 51575 assessed as reduction in visible bacterial growth incubated for 18 to 20 hrs by CLSI based broth microdilution analysis. As to conditions: time 18-20 hrs.
Test [18] relates to Enterococcus faecium. Kind of test: Antibacterial activity against vancomycin-resistant Enterococcus faecium ATCC 700221 assessed as reduction in visible bacterial growth incubated for 18 to 20 hrs by CLSI based broth microdilution analysis. Particulars: time 18-20 hrs.

One may read the MIC as the least concentration at which growth counts as inhibited. Usually MBC stands for the smallest concentration meeting the test's criterion for killing.

Each structure is given as a SMILES string. ≈ marks a conversion by molar mass, not a printed value.

On to `Oc1ccc([C@@H]2Nc3ccc(OC(F)F)cc3[C@H]3[C@@H]4CC[C@@H](C4)[C@H]32)cc1`, for which the MIC in the test with Staphylococcus aureus [1] came to 8 µg/mL (≈ 22.4 µM).

Turning to `Oc1cccc([C@@H]2Nc3ccc(SC(F)(F)F)cc3[C@H]3[C@@H]4CC[C@@H](C4)[C@H]32)c1`, in the test on Staphylococcus aureus [1], the MIC worked out at 4 µg/mL (≈ 10.2 µM).

On to `Oc1ccc([C@@H]2Nc3ccc(OC(F)(F)F)cc3[C@H]3[C@@H]4CC[C@@H](C4)[C@H]32)cc1`, for which the MIC with Staphylococcus aureus [1] was > 16 µg/mL.

On to `Oc1ccc([C@@H]2Nc3c(ccc(Cl)c3Cl)[C@H]3[C@@H]4CC[C@@H](C4)[C@H]32)cc1`, for which the MIC in the test on Staphylococcus aureus [1] came out at 4 µg/mL (≈ 11.1 µM).

For `COc1ccc2c(c1)[C@H]1[C@@H]3CC[C@@H](C3)[C@H]1[C@H](c1ccc(O)cc1)N2`, the MIC in the test with Staphylococcus aureus [1] was determined as 4 µg/mL (≈ 12.4 µM).

As for `Oc1ccc([C@@H]2Nc3cc(F)cc(F)c3[C@H]3[C@@H]4CC[C@@H](C4)[C@H]32)cc1`, the MIC in the test with Staphylococcus aureus [1] amounted to 4 µg/mL (≈ 12.2 µM).

With `Oc1ccc([C@@H]2Nc3ccc(F)cc3[C@H]3[C@@H]4CC[C@@H](C4)[C@H]32)cc1`, the MIC with Staphylococcus aureus [1] is > 16 µg/mL.

For the compound `Oc1cccc([C@@H]2Nc3ccc(S(F)(F)(F)(F)F)cc3[C@H]3[C@@H]4CC[C@@H](C4)[C@H]32)c1`, the MIC in the test on Staphylococcus aureus [1] turned out to be 4 µg/mL (≈ 9.58 µM).

As for `Oc1c(Cl)cc(Cl)cc1Sc1cc(Cl)cc(Cl)c1O` [BITHIONOL], the MBEC with Staphylococcus aureus [2], in the test on Enterococcus faecalis [3] and in the test with Enterococcus faecium [4] was 8 µg/mL in each case.

As to `CN[C@H](CC(C)C)C(=O)N[C@H]1C(=O)N[C@@H](CC(N)=O)C(=O)N[C@H]2C(=O)N[C@H]3C(=O)N[C@H](C(=O)N[C@H](C(=O)O)c4cc(O)cc(O)c4-c4cc3ccc4O)[C@H](O)c3ccc(c(Cl)c3)Oc3cc2cc(c3O[C@@H]2O[C@H](CO)[C@@H](O)[C@H](O)[C@H]2O[C@H]2C[C@](C)(N)[C@H](O)[C@H](C)O2)Oc2ccc(cc2Cl)[C@H]1O` [VANCOMYCIN], the MBC was 1 µg/mL (≈ 0.69 µM) with Staphylococcus aureus [5]; 2 µg/mL (≈ 1.38 µM) in the test with Staphylococcus aureus [1]; 2 µg/mL (≈ 1.38 µM) with Enterococcus faecalis [6]; 8 µg/mL (≈ 5.52 µM) in the test with Staphylococcus aureus [7]; 2 µg/mL (≈ 1.38 µM) with Listeria monocytogenes; 1 µg/mL (≈ 0.69 µM) with Staphylococcus aureus [8]. Further, the MBC in the test on Staphylococcus aureus [9] was 1 µg/mL (≈ 0.69 µM); in the test on Staphylococcus aureus [10] it was 2 µg/mL (≈ 1.38 µM); in the test on Staphylococcus aureus [11], 1 µg/mL (≈ 0.69 µM); in the test with Staphylococcus aureus [12], 1 µg/mL (≈ 0.69 µM); in the test with Staphylococcus aureus [13] it was 2 µg/mL (≈ 1.38 µM); with Staphylococcus aureus [14] it was 1 µg/mL (≈ 0.69 µM). The MBC with Staphylococcus aureus [15] and in the test on Staphylococcus aureus [16] was 1 µg/mL (≈ 0.69 µM) each time. Also, the MIC amounted to 2 µg/mL (≈ 1.38 µM) in the test on Enterococcus faecalis [6] and 1 µg/mL (≈ 0.69 µM) in the test with Listeria monocytogenes.

On to `FS(F)(F)(F)(F)c1ccc2c(c1)[C@H]1[C@@H]3CC[C@@H](C3)[C@H]1[C@H](c1ccccc1)N2`, for which the MIC in the test on Staphylococcus aureus [1] is > 16 µg/mL.

On to `CSc1ccc2c(c1)[C@H]1[C@@H]3CC[C@@H](C3)[C@H]1[C@H](c1ccc(O)cc1)N2`, for which, in the test with Staphylococcus aureus [1], the MIC is > 16 µg/mL.

In the case of `Oc1ccc([C@@H]2Nc3c(SC(F)(F)F)cccc3[C@H]3[C@@H]4CC[C@@H](C4)[C@H]32)cc1`, the MIC in the test on Staphylococcus aureus [1] was > 16 µg/mL.

In the case of `Oc1ccc([C@@H]2Nc3ccccc3[C@H]3[C@@H]4CC[C@@H](C4)[C@H]32)cc1`, in the test on Staphylococcus aureus [1], the MIC was > 16 µg/mL.

On to `Oc1ccc([C@@H]2Nc3ccc(SC(F)(F)F)cc3[C@H]3[C@@H]4CC[C@@H](C4)[C@H]32)cc1`, for which the MIC in the test on Staphylococcus aureus [1], in the test on Enterococcus faecalis [17], with Enterococcus faecalis [6], with Listeria monocytogenes, in the test with Enterococcus faecium [18] and in the test with Staphylococcus aureus [13] was 2 µg/mL (≈ 5.11 µM) throughout. In addition, the minimum inhibitory concentration (MIC) in the test on Staphylococcus aureus [16] was determined as 2 µg/mL (≈ 5.11 µM).

Turning to `Oc1ccccc1[C@@H]1Nc2ccc(S(F)(F)(F)(F)F)cc2[C@H]2[C@@H]3CC[C@@H](C3)[C@H]21`, the MIC in the test on Staphylococcus aureus [1] came to 4 µg/mL (≈ 9.58 µM).

For `O=[N+]([O-])c1ccc(O)c2ncccc12` [NITROXOLINE], the MBEC in the test on Staphylococcus aureus [2], in the test on Enterococcus faecalis [3] and in the test with Enterococcus faecium [4] was 16 µg/mL in each case.

For the compound `CC(=O)NC[C@H]1CN(c2ccc(N3CCOCC3)c(F)c2)C(=O)O1` [LINEZOLID], the minimal bactericidal concentration (MBC) with Staphylococcus aureus [5] is > 64 µg/mL; with Staphylococcus aureus [1] it was 64 µg/mL (≈ 190 µM); in the test on Enterococcus faecalis [17] it was > 128 µg/mL; in the test on Enterococcus faecalis [6], 64 µg/mL (≈ 190 µM); in the test with Staphylococcus aureus [7], > 64 µg/mL; in the test with Staphylococcus aureus [8], 64 µg/mL (≈ 190 µM). Moreover, the MBC is 64 µg/mL (≈ 190 µM) in the test with Staphylococcus aureus [9]; > 128 µg/mL in the test on Enterococcus faecium [18]; 64 µg/mL (≈ 190 µM) in the test on Staphylococcus aureus [10]; > 64 µg/mL with Staphylococcus aureus [11]; > 64 µg/mL in the test with Staphylococcus aureus [12]; 128 µg/mL (≈ 379 µM) in the test on Staphylococcus aureus [13]. The MBC in the test with Staphylococcus aureus [14] was > 64 µg/mL; in the test on Staphylococcus aureus [15], > 64 µg/mL; in the test with Staphylococcus aureus [16] it was 64 µg/mL (≈ 190 µM). Besides, the MIC with Staphylococcus aureus [5] was found to be 1 µg/mL (≈ 2.96 µM); with Staphylococcus aureus [7] it was 1 µg/mL (≈ 2.96 µM); with Listeria monocytogenes, 2 µg/mL (≈ 5.93 µM); in the test on Staphylococcus aureus [8], 1 µg/mL (≈ 2.96 µM); with Staphylococcus aureus [9], 1 µg/mL (≈ 2.96 µM); in the test on Enterococcus faecium [18], 1 µg/mL (≈ 2.96 µM). Besides, the minimum inhibitory concentration (MIC) in the test with Staphylococcus aureus [10], with Staphylococcus aureus [11], in the test with Staphylococcus aureus [12], with Staphylococcus aureus [14] and in the test with Staphylococcus aureus [15] was 1 µg/mL (≈ 2.96 µM) in each case.

Take `Oc1ccc([C@@H]2Nc3c(OC(F)(F)F)cccc3[C@H]3[C@@H]4CC[C@@H](C4)[C@H]32)cc1`: the MIC in the test on Staphylococcus aureus [1] worked out at 4 µg/mL (≈ 10.7 µM).

With `Oc1ccc([C@@H]2Nc3ccc(C(F)(F)F)cc3[C@H]3[C@@H]4CC[C@@H](C4)[C@H]32)cc1`, the MIC with Staphylococcus aureus [1], with Enterococcus faecalis [17], with Enterococcus faecalis [6], in the test on Listeria monocytogenes, in the test on Enterococcus faecium [18] and in the test with Staphylococcus aureus [13] was 2 µg/mL (≈ 5.56 µM) in each case. Further, the MIC in the test on Staphylococcus aureus [16] turned out to be 2 µg/mL (≈ 5.56 µM).

For `Oc1ccc(-c2nc3ccc(S(F)(F)(F)(F)F)cc3c3c2[C@H]2CC[C@@H]3C2)cc1`, the MIC with Staphylococcus aureus [1] was > 16 µg/mL.
